Measured values taken from patent US11628181B2, “N4-hydroxycytidine and derivatives and anti-viral uses related thereto” (Emory University, priority 2014, dated 2023).
Values after ≈ are worked out from the molar mass of the structure shown. Where two headings read alike, the source gives them in different places.

Assays:
in vitro [1] = assay: in vitro
CHIKV = assay: microbe, parasite or virus in culture; details: Chikungunya virus
VEEV [2] = assay: microbe, parasite or virus in culture; assay type: cell-based; details: Venezuelan equine encephalitis virus, HeLa; for inhibition at 10 µM: read-out: Viral Inh. 10 uM; for inhibition at 50 µM: read-out: Viral Inh. 50 uM
HeLa = details: human
Chikungunya virus = Chikungunya virus (MOI 0.5) viral inhibition in U2OS cell line; assay type: cell-based; details: for inhibition at 10 µM: read-out: Viral Inh. 10 uM; for inhibition at 50 µM: read-out: Viral Inh. 50 uM
U2OS cell line = assay: Cell viability, U2OS cell line (Chikungunya screen)
Vero = assay: Cell viability, Vero (MERV screen); assay type: cell-based
MERV = MERV (MOI 0.4) viral inhibition in Vero; assay type: cell-based; details: MERV MOI 0.4, Vero; for inhibition at 10 µM: read-out: Viral Inh. 10 uM; for inhibition at 50 µM: read-out: Viral Inh. 50 uM
in vitro [3] = details: African green monkey
SARS Coronavirus Urbani = assay: microbe, parasite or virus in culture; assay type: cell-based; details: Severe acute respiratory syndrome-related coronavirus, Vero 76
VEEV [4] = assay: microbe, parasite or virus in culture; assay type: cell-based; details: Venezuelan equine encephalitis virus, Astrocyte

CN(C)C(=O)ONc1ccn([C@@H]2O[C@H](CO)[C@H](O)C2O)c(=O)n1 (stereo partly drawn) [EIDD-02423-01]
CC50 (in vitro [1]): > 500 µM
EC50 (CHIKV): 25 µM

O=c1nc(NO)cc[nH]1 [EIDD-02504-01]
CC50 (in vitro [1]): > 500 µM
EC50 (CHIKV): > 78 µM

[2H]c1cn([C@@H]2O[C@H](CO)C(O)[C@@H]2O)c(=O)nc1NO (stereo partly drawn) [EIDD-02261-01]
CC50 (in vitro [1]): > 500 µM
EC50 (CHIKV): 1.5 µM

O=c1nc(NO)ccn1[C@@H]1O[C@H](CO)C(O)[C@@H]1O (stereo partly drawn) [EIDD-02200-01]
CC50 (in vitro [1]): > 500 µM
EC50 (CHIKV): > 78 µM

CC(C)(C)C(=O)OCOP(=O)(OCOC(=O)C(C)(C)C)OC[C@H]1O[C@@H](n2ccc(=O)[nH]c2=O)[C@](C)(O)C1O (stereo partly drawn) [EIDD-02416-01]
CC50 (in vitro [1]): 53 µM
EC50 (CHIKV): 27 µM

CC(C)OC(=O)[C@H](C)NP(=O)(OC[C@H]1O[C@@H](n2ccc(NO)nc2=O)C(O)C1O)Oc1ccccc1 (stereo partly drawn) [drawing 80]
EC50 (VEEV [2]): 16.2 µM
inhibition at 10 µM (VEEV [2]): 73%
inhibition at 50 µM (VEEV [2]): 100%
Cell Viability 10 uM (HeLa): 137% ± 16% (n = 4)
Cell Viability 50 uM (HeLa): 134% ± 16% (n = 4)

O=c1nc(NO)ccn1[C@@H]1O[C@H](CO)C(O)C1O (stereo partly drawn) [drawing 73]
inhibition at 10 µM (Chikungunya virus): 80%
inhibition at 50 µM (Chikungunya virus): 100%
Cell Viability 10 uM (U2OS cell line): 97% ± 5% (n = 4)
Cell Viability 50 uM (U2OS cell line): 79% ± 10% (n = 4)

CC(C)OC(=O)[C@H](C)NP(=O)(OC[C@H]1O[C@@H](n2ccc(NO)nc2=O)C(O)C1O)Oc1ccccc1 (stereo partly drawn) [drawing 75]
inhibition at 10 µM (Chikungunya virus): 3%
inhibition at 50 µM (Chikungunya virus): 36%
Cell Viability 10 uM (U2OS cell line): 99% ± 6% (n = 4)
Cell Viability 50 uM (U2OS cell line): 99% ± 8% (n = 4)

NNc1ccn([C@@H]2O[C@H](CO)C(O)[C@@H]2O)c(=O)n1 (stereo partly drawn) [EIDD-01910-01]
CC50 (in vitro [1]): > 500 µM
EC50 (CHIKV): > 78 µM

CCCCCCCNC(=O)ONc1ccn([C@@H]2O[C@H](CO)[C@H](O)C2O)c(=O)n1 (stereo partly drawn) [EIDD-02107-01]
CC50 (in vitro [1]): 165 µM
EC50 (CHIKV): 29 µM

O=c1ccn([C@@H]2O[C@H](CO)C(O)[C@]23CC3(F)F)c(=O)[nH]1 (stereo partly drawn) [EIDD-02339-01]
CC50 (in vitro [1]): > 500 µM
EC50 (CHIKV): > 78 µM

CC(C)(C)C(=O)OCOP(=O)(OCOC(=O)C(C)(C)C)OC[C@H]1O[C@@H](n2ccc(=O)[nH]c2=O)[C@](C)(F)C1O (stereo partly drawn) [EIDD-02427-01]
CC50 (in vitro [1]): 355 µM
EC50 (CHIKV): 58 µM

O=c1nc(NO)ccn1[C@@H]1O[C@H](CO)C(O)C1O (stereo partly drawn) [drawing 78]
EC50 (VEEV [2]): 1.24 µM
inhibition at 10 µM (VEEV [2]): 100%
inhibition at 50 µM (VEEV [2]): 100%
Cell Viability 10 uM (HeLa): 116% ± 24% (n = 4)
Cell Viability 50 uM (HeLa): 61% ± 8% (n = 4)

CC(C)OC(=O)[C@H](C)NP(=O)(OC[C@H]1O[C@@H](n2ccc(NO)nc2=O)C(O)C1O)Oc1ccccc1 (stereo partly drawn) [drawing 90]
Cell Viability 10 uM (Vero): 103% ± 14% (n = 4)
Cell Viability 50 uM (Vero): 102% ± 36% (n = 4)
inhibition at 10 µM (MERV): 29%
inhibition at 50 µM (MERV): 85%

O=c1nc(NO)ccn1[C@@H]1O[C@H](CO)C(O)C1O (stereo partly drawn) [drawing 88]
Cell Viability 10 uM (Vero): 75% ± 6% (n = 4)
Cell Viability 50 uM (Vero): 47% ± 3% (n = 4)
inhibition at 10 µM (MERV): 99%
inhibition at 50 µM (MERV): 100%

CCCCCCCOC(=O)ONc1ccn([C@@H]2O[C@H](CO)C(O)C2O)c(=O)n1 (stereo partly drawn) [drawing 70]
CC50 (in vitro [3]): > 100 µg/mL
EC50 (SARS Coronavirus Urbani): 0.28 µg/mL (≈ 0.698 µM)

CCCCCCCCCCCCCCCCOCCCOP(=O)(O)OC[C@H]1O[C@@H](n2ccc(NO)nc2=O)[C@@H](O)C1O (stereo partly drawn) [EIDD-02108-03]
CC50 (in vitro [1]): 98 µM
EC50 (CHIKV): 34.5 µM

CCCCCCCOC(=O)OC[C@H]1O[C@@H](n2ccc(NO)nc2=O)C(O)[C@H]1O (stereo partly drawn) [EIDD-02474-01]
CC50 (in vitro [1]): 184 µM
EC50 (CHIKV): 0.07 µM

CCCCCCCOC(=O)ONc1ccn([C@@H]2O[C@H](CO)C(O)C2O)c(=O)n1 (stereo partly drawn) [drawing 79]
EC50 (VEEV [2]): 0.57 µM
inhibition at 10 µM (VEEV [2]): 100%
inhibition at 50 µM (VEEV [2]): 100%
Cell Viability 10 uM (HeLa): 116% ± 20% (n = 4)
Cell Viability 50 uM (HeLa): 85% ± 8% (n = 4)

O=c1nc(NO)c(F)cn1[C@@H]1O[C@H](CO)C(O)C1O (stereo partly drawn) [drawing 76]
inhibition at 10 µM (Chikungunya virus): 8%
inhibition at 50 µM (Chikungunya virus): 51%
Cell Viability 10 uM (U2OS cell line): 81% ± 4% (n = 4)
Cell Viability 50 uM (U2OS cell line): 53% ± 2% (n = 4)

CCCCCCCOC(=O)ONc1ccn([C@@H]2O[C@H](CO)C(O)C2O)c(=O)n1 (stereo partly drawn) [drawing 74]
inhibition at 10 µM (Chikungunya virus): 72%
inhibition at 50 µM (Chikungunya virus): 98%
Cell Viability 10 uM (U2OS cell line): 93% ± 4% (n = 4)
Cell Viability 50 uM (U2OS cell line): 79% ± 8% (n = 4)

CC1(F)[C@@H](O)[C@@H](CO)O[C@H]1n1ccc(NO)nc1=O (stereo partly drawn) [EIDD-02080-01]
CC50 (in vitro [1]): > 500 µM
EC50 (CHIKV): > 75 µM

CCCCCCCNC(=O)ONc1ccn([C@@H]2O[C@H](CO)C(O)C2O)c(=O)n1 (stereo partly drawn) [drawing 87]
Cell Viability 10 uM (Astrocytes): 98% ± 12% (n = 3)
Cell Viability 50 uM (Astrocytes): 85% ± 19% (n = 3)
inhibition at 10 µM (VEEV [4]; read-out: Viral Inh. 10 uM): 51%
inhibition at 50 µM (VEEV [4]; read-out: Viral Inh. 50 uM): 37%
